Source: PMC5069460, “A novel gene cluster allows preferential utilization of fucosylated milk oligosaccharides in Bifidobacterium longum subsp. longum SC596” (Scientific Reports, 2016)

Each compound was assayed against T1, BLNG_00936 (SBP) (Bifidobacterium longum, UniProt Q8G848) (assay: glycan array (CFG Mammalian Glycan Array v5.[…]), anti-GST Alexa […]). Conditions: glycan immobilised via spacer; protein 200 ug/ml; pH 7.4, 150 mM NaCl, 2 mM CaCl2, 2 mM MgCl2.
T1 construct: gene fruE; tag kept for detection
T1 sequence (Q8G848 23-327 limits assumed): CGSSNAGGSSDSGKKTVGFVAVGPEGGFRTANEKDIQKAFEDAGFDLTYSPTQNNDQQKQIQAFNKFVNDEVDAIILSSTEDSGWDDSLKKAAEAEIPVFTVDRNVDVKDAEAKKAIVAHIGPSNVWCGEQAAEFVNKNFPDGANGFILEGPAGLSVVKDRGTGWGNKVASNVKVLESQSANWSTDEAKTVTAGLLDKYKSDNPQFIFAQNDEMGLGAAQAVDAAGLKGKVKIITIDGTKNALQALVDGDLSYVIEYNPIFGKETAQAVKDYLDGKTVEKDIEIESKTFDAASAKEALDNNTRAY
Format: binding

For `CC(=O)N[C@H]1[C@H](OCCCN)O[C@H](CO)[C@@H](O[C@@H]2O[C@H](CO)[C@H](O)[C@H](O[C@@H]3O[C@H](CO)[C@H](O)[C@H](O)[C@H]3O)[C@H]2O)[C@@H]1O` [Galβ1-3Galβ1-4GlcNAcβ-Sp8], which “Average RFU^b” value is on record?
The value was 126 RFU.

The compounds below were run against T2, BLNG_01257 (SBP of FHMO cluster) (Bifidobacterium longum, UniProt A0A0M3T5K2) in the same assay as above. Conditions: glycan immobilised via spacer; protein 200 ug/ml; pH 7.4, 150 mM NaCl, 2 mM CaCl2, 2 mM MgCl2.
T2 construct: tag kept for detection; homolog of Blon_0343 and Blon_2202
T2 sequence (A0A0M3T5K2 23-460 limits assumed): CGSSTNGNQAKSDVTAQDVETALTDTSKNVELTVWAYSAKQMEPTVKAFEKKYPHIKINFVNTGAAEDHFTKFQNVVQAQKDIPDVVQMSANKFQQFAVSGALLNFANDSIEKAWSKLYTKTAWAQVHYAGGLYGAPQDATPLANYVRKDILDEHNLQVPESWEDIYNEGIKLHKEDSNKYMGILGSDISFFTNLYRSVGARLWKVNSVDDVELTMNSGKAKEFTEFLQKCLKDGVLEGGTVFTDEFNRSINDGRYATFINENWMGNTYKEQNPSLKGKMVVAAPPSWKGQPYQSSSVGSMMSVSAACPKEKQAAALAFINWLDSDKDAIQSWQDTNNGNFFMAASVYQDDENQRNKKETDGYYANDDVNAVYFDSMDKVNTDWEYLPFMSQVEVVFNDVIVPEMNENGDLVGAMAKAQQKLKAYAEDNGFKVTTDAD
Format: binding

`C[C@@H]1O[C@@H](O[C@H]2C(O)O[C@H](CO)[C@H](O)[C@@H]2O)[C@@H](O)[C@H](O)[C@@H]1O` (stereo partly shown) [Fuca1-2Galβ-Sp8] was tested. Which “Average RFU^b” value did it give?
The value was 2161 RFU.

For Fuca1-2Galβ1-4Glcβ-Sp0, which “Average RFU^b” value is on record?
Its value is 360 RFU.

Each compound was assayed against T3, BLNG_00160 (SBP of LNB/GNB cluster) (Bifidobacterium longum, UniProt Q8G3W5) in the same assay as above. Conditions: glycan immobilised via spacer; protein 200 ug/ml; pH 7.4, 150 mM NaCl, 2 mM CaCl2, 2 mM MgCl2.
T3 construct: gene BL1638; tag kept for detection
T3 sequence (Q8G3W5 24-438): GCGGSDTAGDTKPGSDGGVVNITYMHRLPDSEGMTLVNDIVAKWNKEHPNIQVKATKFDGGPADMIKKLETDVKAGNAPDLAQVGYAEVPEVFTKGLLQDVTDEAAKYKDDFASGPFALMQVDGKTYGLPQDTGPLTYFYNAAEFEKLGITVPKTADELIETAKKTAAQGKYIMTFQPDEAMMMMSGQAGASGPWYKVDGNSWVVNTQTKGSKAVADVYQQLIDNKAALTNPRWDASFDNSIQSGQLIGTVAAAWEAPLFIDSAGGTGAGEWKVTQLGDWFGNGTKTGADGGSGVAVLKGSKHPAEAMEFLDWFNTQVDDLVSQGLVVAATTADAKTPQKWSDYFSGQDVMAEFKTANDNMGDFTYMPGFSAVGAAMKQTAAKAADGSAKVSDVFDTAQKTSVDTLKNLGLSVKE
Format: binding

Which “Average RFU^b” value does the source give for `CC(=O)N[C@H]1[C@H](OCCN)O[C@H](CO)[C@@H](O)[C@@H]1O[C@@H]1O[C@H](CO)[C@H](O)[C@H](O)[C@H]1O` [Galβ1-3GlcNAcβ-Sp0] here?
The value was 969 RFU.

For `CC(=O)N[C@H]1[C@H](OCCCN)O[C@H](CO)[C@@H](O[C@@H]2O[C@H](CO)[C@H](O)[C@H](O[C@@H]3O[C@H](CO)[C@H](O)[C@H](O)[C@H]3O)[C@H]2O)[C@@H]1O` [Galβ1-3Galβ1-4GlcNAcβ-Sp8], which “Average RFU^b” value is on record?
Its value is 4654 RFU.

For `CC(=O)N[C@H]1[C@H](OCCN)O[C@H](CO)[C@@H](O[C@@H]2O[C@H](CO)[C@H](O)[C@H](O[C@@H]3O[C@H](CO)[C@@H](O)[C@H](O[C@@H]4O[C@H](CO)[C@H](O)[C@H](O)[C@H]4O)[C@H]3NC(C)=O)[C@H]2O)[C@@H]1O` [Galβ1-3GlcNAcβ1-3Galβ1-4GlcNAcβ-Sp0], which “Average RFU^b” value is on record?
The value was 2029 RFU.

Which “Average RFU^b” value does the source give for `CC(=O)N[C@H]1[C@H](O[C@@H]2[C@H](O)[C@@H](O)[C@H](O[C@H]3[C@H](O)[C@@H](O)[C@H](OCCCN)O[C@@H]3CO)O[C@@H]2CO)O[C@H](CO)[C@H](O)[C@@H]1O[C@@H]1O[C@H](CO)[C@H](O)[C@H](O)[C@H]1O` [Galβ1-3GalNAcβ1-4Galβ1-4Glcβ-Sp8] here?
The value was 3430 RFU.

With Galβ1-3GalNAcβ1-3Gal-Sp21 as the compound, how does the “Average RFU^b” value read?
The value was 2528 RFU.

How did the “Average RFU^b” value turn out when `CC(=O)N[C@H]1[C@H](OCCCN)O[C@H](COS(=O)(=O)O)[C@@H](O)[C@@H]1O[C@@H]1O[C@H](CO)[C@H](O)[C@H](O)[C@H]1O` [Galβ1-3(6S)GlcNAcβ-Sp8] was run?
Its value is 2646 RFU.

How did the “Average RFU^b” value turn out when Galβ1-3GlcNAcβ1-3Galβ1-4Glcβ-Sp10 was run?
Its value is 1784 RFU.
